Values belong to the molecule of their own block, whether it stands above or below them.
Tests used:
human MRP2 = human MRP2 (Homo sapiens, UniProt Q92887); test: Vesicular transport assay, inside-out membrane vesicles expressing human MRP2; conditions: positive substrate 20 μM, 10 min; human MRP2
Method: (§1) Inside-out membrane vesicles (5 mg protein/mL), prepared from insect cells expressing human multidrug resistance-associated protein (MRP) 2, MRP3, MRP4, breast cancer resistance protein (BCRP), bile salt export pump (BSEP), and multidrug resistance protein (MDR) one and rat Mrp2, Mrp4, Bcrp, and Bsep, and vesicles (5 mg protein/mL; prepared from the insect cells expressing no ABC transporter; serving as negative control) were obtained from Genomembrane (Kanazawa, Japan).
(§2) The test Danshen compounds at 100 µM final concentration were separately incubated with the membrane vesicles for 10 min. Buffer C (50 mM MOPS-tris, 70 mM KCl, 7.5 mM MgCl2, pH 7.0) was used for preincubation and incubation, while buffer D (40 mM MOPS-tris, 70 mM KCl, pH 7.0) was used for vesicle washing. The transport rate (pmol/mg protein/min) of the test Danshen compound was calculated using Equation (2): Transport=(CV×VV)/T/WV (2) where C V, V V, T, and W V represent concentration of the compound in vesicular lysates supernatant (μM), volume of the lysates (μL), incubation time (10 min), and amount of vesicle protein amount per well (0.05 mg), respectively. Differential transport of the test Danshen compound between ATP-containing vesicles and AMP-containing vesicles was defined as net transport ratio (TransportATP/TransportAMP ratio). […] All the incubation samples were analyzed by liquid chromatography/mass spectrometry.

rat Mrp2 = rat Mrp2 (Rattus norvegicus, UniProt Q63120); test: Vesicular transport assay, inside-out membrane vesicles expressing rat Mrp2; conditions: positive substrate 20 μM, 10 min; rat Mrp2
Sequence of rat Mrp2 (Q63120 whole entry): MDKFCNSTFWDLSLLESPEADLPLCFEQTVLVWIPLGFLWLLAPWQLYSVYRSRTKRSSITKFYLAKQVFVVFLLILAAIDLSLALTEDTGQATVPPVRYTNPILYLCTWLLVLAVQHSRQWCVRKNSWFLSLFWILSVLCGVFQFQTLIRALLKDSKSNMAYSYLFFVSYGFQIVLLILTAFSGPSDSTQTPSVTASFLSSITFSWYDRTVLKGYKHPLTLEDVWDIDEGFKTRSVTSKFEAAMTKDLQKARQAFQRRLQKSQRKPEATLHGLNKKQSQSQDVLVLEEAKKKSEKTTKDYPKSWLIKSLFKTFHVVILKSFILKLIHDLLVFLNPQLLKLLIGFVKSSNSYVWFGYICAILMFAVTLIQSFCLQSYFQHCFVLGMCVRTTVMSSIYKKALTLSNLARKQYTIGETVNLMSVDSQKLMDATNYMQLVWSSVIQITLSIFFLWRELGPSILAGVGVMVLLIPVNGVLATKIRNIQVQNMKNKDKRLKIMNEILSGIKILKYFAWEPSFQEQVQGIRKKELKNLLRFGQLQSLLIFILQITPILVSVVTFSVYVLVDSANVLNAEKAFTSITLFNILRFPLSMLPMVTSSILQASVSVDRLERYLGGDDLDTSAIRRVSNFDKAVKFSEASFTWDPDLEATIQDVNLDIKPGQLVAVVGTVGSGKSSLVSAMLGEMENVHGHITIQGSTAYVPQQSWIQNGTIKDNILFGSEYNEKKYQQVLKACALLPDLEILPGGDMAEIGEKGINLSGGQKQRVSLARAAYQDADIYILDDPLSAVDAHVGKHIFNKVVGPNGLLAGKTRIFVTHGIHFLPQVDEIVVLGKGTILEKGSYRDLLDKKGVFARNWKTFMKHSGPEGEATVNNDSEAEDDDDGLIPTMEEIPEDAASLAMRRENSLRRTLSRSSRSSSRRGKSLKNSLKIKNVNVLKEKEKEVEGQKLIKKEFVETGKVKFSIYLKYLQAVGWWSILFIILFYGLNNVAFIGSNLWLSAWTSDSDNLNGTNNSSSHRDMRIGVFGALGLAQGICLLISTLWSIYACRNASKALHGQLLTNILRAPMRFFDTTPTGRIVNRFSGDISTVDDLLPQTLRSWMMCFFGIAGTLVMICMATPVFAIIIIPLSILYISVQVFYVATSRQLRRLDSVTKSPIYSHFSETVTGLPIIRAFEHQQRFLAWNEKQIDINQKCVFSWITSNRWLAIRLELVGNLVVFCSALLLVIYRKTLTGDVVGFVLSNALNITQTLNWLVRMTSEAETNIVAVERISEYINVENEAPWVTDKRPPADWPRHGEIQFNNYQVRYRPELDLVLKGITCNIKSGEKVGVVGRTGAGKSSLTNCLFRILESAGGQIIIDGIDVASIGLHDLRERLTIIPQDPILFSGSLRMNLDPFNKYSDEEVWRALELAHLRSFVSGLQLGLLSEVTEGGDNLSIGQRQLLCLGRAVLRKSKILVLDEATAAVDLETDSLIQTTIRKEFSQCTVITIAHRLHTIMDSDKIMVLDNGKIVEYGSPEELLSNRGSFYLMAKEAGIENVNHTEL
Method: as §1, §2

human MRP3 = human MRP3 (Homo sapiens, UniProt O15438); test: Vesicular transport assay, inside-out membrane vesicles expressing human MRP3; conditions: positive substrate 20 μM, 10 min; human MRP3
Sequence of human MRP3 (O15438 whole entry): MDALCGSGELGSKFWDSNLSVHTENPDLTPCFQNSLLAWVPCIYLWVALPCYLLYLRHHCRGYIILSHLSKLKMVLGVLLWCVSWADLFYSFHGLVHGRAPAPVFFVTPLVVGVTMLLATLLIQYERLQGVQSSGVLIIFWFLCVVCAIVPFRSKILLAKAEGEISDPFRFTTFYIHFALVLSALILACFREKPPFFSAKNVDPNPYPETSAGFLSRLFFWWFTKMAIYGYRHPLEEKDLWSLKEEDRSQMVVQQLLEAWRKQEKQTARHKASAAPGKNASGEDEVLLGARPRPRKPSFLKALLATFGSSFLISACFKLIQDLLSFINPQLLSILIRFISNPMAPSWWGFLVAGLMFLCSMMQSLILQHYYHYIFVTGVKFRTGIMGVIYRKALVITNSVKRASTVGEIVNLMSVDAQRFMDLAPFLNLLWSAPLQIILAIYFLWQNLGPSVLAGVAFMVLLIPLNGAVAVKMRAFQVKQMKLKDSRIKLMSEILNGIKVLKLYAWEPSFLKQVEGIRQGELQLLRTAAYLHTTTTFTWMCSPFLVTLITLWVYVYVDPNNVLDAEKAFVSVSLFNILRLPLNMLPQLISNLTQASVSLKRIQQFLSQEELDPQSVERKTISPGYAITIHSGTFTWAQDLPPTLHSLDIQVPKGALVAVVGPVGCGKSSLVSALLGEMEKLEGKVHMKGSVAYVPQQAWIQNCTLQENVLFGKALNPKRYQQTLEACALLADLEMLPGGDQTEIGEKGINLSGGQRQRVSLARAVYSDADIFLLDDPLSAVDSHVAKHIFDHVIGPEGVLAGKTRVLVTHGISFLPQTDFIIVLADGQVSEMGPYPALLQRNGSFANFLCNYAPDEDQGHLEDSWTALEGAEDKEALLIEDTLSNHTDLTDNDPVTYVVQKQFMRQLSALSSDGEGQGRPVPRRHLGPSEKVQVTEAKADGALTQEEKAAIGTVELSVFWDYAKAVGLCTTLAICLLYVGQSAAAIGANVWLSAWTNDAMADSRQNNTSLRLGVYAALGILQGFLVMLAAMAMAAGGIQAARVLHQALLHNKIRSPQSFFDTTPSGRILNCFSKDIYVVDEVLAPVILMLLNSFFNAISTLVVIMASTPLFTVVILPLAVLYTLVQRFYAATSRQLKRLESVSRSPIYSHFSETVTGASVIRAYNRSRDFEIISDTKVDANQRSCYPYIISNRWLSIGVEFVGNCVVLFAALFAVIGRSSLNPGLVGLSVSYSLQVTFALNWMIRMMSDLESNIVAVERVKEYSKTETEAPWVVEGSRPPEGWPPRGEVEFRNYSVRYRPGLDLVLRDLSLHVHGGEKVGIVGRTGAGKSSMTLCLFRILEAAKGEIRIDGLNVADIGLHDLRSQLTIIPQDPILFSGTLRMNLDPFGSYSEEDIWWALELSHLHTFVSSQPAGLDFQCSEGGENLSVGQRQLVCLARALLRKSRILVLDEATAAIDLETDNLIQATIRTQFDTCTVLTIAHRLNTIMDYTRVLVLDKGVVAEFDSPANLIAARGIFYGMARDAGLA
Method: as §1, §2

OATP1B3 = molecular target: T1, OATP1B3 (Homo sapiens, UniProt Q9NPD5); test: Cellular transport assay, HEK-293 cells expressing human OATP1B3; conditions: positive substrate 20 μM, 10 min; human OATP1B3
T1 sequence (Q9NPD5 1-702): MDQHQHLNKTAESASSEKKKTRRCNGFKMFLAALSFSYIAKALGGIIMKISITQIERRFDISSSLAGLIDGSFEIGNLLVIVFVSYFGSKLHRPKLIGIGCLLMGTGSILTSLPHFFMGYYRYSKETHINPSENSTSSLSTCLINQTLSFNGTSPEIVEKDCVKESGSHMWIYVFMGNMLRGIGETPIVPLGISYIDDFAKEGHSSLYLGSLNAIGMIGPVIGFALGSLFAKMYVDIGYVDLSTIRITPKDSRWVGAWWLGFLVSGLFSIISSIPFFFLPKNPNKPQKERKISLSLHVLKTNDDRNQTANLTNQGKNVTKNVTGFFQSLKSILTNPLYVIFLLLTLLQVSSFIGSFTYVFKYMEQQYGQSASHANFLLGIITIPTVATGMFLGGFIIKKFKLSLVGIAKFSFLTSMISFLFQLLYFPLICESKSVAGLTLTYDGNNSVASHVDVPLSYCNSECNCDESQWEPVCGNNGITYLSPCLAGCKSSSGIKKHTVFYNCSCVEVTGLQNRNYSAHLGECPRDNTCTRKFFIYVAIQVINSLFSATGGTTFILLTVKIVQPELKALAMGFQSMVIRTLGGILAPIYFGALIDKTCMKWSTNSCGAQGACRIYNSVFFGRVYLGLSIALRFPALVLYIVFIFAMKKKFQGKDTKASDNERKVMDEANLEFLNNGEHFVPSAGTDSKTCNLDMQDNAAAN
Method: (§3) Briefly, HEK-293 cells were grown, at 37°C and 5% CO2, in Dulbecco’s modified Eagle’s medium, which was fortified with 10% fetal bovine serum, 1% minimal essential medium nonessential amino acids, and 1% antibiotic-antimycotic solution. A day before transfection, cells were seeded onto 24-well poly-D-lysine-coated plates at a density of 2 × 10^5 cells per well. After incubation at 37°C and 5% CO2 for 24 h, the expression plasmid and the empty vector were introduced separately into the HEK293 cells with Lipofectamine 2000 transfection reagent (Invitrogen, Carlsbad, CA, United States), according to the manufacturer’s protocol to yield transporter-expressing cells and mock cells, respectively.
(§4) Transport studies were performed 48 h after the transfection. […] Differential uptake between the transfected cells and mock cells was defined as net transport ratio (TransportTC/TransportMC ratio), where TransportTC and TransportMC are the transport rates of a test Danshen compound into transfected and mock cells, respectively. […] The determination was performed under linear uptake conditions by incubation for 5 min. Table 1 summarizes the final concentrations of the test Danshen compounds for different transporters. All the incubation samples were analyzed by liquid chromatography/mass spectrometry.
(§5) GraFit software (version 5.0; Erithacus Software Ltd, Surrey, United Kingdom) was used to determine the K m and V max values by nonlinear regression analysis of initial transport rates as a function of substrate concentration.

human OATP1B1 = molecular target: T2, human OATP1B1 (Homo sapiens, UniProt Q9Y6L6); test: Cellular transport assay, HEK-293 cells expressing human OATP1B1; conditions: positive substrate 20 μM, 10 min; human OATP1B1
T2 sequence (Q9Y6L6 1-691): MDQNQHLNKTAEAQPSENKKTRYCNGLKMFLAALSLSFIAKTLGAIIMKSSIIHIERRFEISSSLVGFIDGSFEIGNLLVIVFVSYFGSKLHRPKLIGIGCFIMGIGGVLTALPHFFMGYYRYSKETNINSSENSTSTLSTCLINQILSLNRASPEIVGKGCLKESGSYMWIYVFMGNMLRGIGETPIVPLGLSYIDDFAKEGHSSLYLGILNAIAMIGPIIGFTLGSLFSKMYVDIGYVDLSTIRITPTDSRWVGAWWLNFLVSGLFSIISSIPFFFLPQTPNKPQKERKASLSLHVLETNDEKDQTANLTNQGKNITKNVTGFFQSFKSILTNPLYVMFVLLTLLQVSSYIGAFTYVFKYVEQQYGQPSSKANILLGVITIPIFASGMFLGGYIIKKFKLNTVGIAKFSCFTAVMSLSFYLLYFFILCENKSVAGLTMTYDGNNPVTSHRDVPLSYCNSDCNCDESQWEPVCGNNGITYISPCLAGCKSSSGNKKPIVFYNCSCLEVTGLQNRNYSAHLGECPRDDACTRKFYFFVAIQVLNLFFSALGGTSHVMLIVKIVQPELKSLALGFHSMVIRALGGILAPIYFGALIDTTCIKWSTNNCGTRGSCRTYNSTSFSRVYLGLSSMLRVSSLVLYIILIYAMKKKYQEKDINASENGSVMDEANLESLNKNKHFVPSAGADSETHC
Method: as §3, §4, §5

rat Oatp1b2 = molecular target: T3, rat Oatp1b2 (Rattus norvegicus, UniProt Q9QZX8); test: Cellular transport assay, HEK-293 cells expressing rat Oatp1b2; conditions: positive substrate 20 μM, 10 min; rat Oatp1b2
T3 sequence (Q9QZX8 1-687): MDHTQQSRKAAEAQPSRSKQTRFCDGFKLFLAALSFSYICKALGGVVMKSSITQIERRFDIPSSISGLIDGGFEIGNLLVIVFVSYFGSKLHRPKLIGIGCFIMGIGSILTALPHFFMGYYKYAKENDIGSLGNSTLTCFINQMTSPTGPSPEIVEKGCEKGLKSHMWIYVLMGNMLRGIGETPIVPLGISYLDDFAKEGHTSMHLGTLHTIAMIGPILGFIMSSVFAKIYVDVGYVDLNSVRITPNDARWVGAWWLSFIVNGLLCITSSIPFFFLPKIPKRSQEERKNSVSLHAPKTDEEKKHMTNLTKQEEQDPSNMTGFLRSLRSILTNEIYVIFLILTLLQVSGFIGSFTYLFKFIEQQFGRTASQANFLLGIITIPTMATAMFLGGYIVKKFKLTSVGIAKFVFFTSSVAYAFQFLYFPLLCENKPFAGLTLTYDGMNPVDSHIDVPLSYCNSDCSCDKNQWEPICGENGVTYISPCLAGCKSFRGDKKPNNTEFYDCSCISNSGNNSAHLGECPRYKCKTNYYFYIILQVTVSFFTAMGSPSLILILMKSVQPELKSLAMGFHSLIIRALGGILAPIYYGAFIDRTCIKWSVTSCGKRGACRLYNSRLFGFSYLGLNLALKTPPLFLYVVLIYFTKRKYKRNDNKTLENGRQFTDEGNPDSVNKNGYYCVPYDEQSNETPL
Method: as §3, §4, §5

human MDR1 = human MDR1 (Homo sapiens, UniProt P08183); test: Vesicular transport assay, inside-out membrane vesicles expressing human MDR1; conditions: positive substrate 20 μM, 10 min; human MDR1
Method: as §1, §2

rat Oat2 = molecular target: T4, rat Oat2 (Rattus norvegicus, UniProt Q5RLM2); test: Cellular transport assay, HEK-293 cells expressing rat Oat2; conditions: positive substrate 20 μM, 10 min; rat Oat2
T4 sequence (Q5RLM2 1-535): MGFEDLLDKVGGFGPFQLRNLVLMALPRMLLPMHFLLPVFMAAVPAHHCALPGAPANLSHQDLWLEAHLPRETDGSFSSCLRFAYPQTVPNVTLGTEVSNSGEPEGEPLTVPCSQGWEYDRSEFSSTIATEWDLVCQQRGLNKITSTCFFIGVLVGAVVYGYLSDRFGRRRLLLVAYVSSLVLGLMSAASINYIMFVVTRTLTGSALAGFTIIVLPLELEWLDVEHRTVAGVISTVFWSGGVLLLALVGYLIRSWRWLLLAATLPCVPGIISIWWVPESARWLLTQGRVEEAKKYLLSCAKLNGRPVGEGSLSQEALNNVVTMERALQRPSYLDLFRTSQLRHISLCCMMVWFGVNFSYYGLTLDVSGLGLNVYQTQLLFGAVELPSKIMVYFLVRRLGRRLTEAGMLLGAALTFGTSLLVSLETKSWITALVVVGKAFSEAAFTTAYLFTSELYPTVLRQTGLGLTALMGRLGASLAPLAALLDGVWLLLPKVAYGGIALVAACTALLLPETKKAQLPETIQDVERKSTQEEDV
Method: as §3, §4, §5

human OAT2 = molecular target: T5, human OAT2 (Homo sapiens, UniProt Q9Y694); test: Cellular transport assay, HEK-293 cells expressing human OAT2; conditions: positive substrate 20 μM, 10 min; human OAT2
T5 sequence (Q9Y694 1-546 isoform Q9Y694-2): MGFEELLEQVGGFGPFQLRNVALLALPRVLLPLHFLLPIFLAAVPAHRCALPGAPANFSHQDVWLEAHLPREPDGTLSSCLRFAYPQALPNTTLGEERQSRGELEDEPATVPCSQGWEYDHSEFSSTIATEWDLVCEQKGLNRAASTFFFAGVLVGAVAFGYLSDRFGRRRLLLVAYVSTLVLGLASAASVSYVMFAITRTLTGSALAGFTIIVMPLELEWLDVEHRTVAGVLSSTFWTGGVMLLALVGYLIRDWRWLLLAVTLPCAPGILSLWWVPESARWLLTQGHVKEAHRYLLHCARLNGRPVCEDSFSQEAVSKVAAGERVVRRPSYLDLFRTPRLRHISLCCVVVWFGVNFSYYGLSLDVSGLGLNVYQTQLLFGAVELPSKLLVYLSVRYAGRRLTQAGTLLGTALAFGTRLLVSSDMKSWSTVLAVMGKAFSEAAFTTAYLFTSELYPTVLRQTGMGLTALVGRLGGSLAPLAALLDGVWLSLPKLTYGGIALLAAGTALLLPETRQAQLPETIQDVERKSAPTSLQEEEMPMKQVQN
Method: as §3, §4, §5

[1] = substrate: O=C(/C=C/c1ccc(O)c(O)c1)O[C@H](Cc1ccc(O)c(O)c1)C(=O)O; test: cells, lysate or membranes named; conditions: other: human renal apical uptake OAT4; 5 min incubation, concentrations in Table 1; 37.0 °C

Sequence of human MRP2 (Q92887 whole entry): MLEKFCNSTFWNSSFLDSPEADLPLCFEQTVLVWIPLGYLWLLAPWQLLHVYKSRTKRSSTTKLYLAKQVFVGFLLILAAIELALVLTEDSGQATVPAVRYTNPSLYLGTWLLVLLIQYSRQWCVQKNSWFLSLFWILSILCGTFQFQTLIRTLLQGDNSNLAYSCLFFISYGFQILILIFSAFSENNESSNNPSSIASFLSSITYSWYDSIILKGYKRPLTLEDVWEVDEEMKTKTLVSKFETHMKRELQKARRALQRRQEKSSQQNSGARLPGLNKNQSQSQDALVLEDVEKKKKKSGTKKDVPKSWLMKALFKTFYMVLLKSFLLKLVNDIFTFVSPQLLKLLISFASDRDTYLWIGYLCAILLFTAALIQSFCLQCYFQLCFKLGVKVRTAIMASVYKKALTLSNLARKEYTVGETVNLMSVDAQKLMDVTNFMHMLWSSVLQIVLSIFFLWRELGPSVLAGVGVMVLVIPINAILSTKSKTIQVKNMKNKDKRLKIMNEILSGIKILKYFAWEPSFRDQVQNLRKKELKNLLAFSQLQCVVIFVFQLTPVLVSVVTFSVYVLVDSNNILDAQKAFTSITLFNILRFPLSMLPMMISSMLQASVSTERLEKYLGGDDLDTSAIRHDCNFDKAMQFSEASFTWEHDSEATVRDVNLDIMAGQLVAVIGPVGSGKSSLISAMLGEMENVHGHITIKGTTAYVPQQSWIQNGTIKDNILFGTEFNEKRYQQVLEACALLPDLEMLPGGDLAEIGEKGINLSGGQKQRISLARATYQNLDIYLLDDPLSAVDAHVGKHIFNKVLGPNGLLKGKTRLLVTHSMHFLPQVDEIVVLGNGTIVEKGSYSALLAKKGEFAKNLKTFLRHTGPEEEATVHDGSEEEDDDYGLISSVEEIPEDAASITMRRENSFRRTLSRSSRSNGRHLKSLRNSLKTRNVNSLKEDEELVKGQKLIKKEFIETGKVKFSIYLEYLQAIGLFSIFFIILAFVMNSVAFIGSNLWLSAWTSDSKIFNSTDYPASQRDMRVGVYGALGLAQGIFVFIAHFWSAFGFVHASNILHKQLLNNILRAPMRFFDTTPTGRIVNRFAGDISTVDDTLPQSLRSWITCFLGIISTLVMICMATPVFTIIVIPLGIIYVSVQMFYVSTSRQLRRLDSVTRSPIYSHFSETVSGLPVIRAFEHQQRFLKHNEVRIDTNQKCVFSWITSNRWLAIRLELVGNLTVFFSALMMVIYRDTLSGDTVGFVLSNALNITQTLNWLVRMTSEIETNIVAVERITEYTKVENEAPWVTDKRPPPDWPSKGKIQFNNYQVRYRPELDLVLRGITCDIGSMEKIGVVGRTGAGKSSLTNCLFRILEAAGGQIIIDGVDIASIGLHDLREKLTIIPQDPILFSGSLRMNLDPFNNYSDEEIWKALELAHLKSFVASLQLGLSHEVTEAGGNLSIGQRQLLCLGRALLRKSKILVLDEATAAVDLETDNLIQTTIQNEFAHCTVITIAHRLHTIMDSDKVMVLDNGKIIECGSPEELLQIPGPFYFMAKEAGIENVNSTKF

- TransportATP/TransportAMP ratio, positive substrate (human MRP2): 7.23 ± 1.04 (E217βG)
- TransportATP/TransportAMP ratio, positive substrate (rat Mrp2): 3.54 ± 0.32 (E217βG)
- TransportATP/TransportAMP ratio, positive substrate (human MRP3): 6.79 ± 1.49 (E217βG)
Molecule: C[C@]12CC[C@@H]3c4ccc(O)cc4CC[C@H]3[C@@H]1CC[C@@H]2O[C@@H]1O[C@H](C(=O)O)[C@@H](O)[C@H](O)[C@H]1O [E217βG, estradiol-17β-D-glucuronide, reference compound]

- TransportTC/TransportMC ratio, positive substrate (OATP1B3): 33.1 ± 0.5 (GL)
- TransportTC/TransportMC ratio, positive substrate (human OATP1B1): 79.5 ± 1.3 (GL)
- TransportTC/TransportMC ratio, positive substrate (rat Oatp1b2): 121 ± 2 (GL)
- TransportATP/TransportAMP ratio, positive substrate (human MDR1): 5.13 ± 0.87 (GL)
Molecule: CC1(C)[C@@H](O[C@H]2O[C@H](C(=O)O)[C@@H](O)[C@H](O)[C@H]2O[C@@H]2O[C@H](C(=O)O)[C@@H](O)[C@H](O)[C@H]2O)CC[C@]2(C)[C@H]3C(=O)C=C4[C@@H]5C[C@@](C)(C(=O)O)CC[C@]5(C)CC[C@@]4(C)[C@]3(C)CC[C@@H]12 [GL, glycyrrhizin, reference compound]

Further lines, the molecule ahead of its results:

Molecule: CCCCC[C@H](O)/C=C/[C@@H]1[C@@H](C/C=C\CCCC(=O)O)[C@@H](O)C[C@H]1O [PGF2α, prostaglandin F2α, reference compound]
- TransportTC/TransportMC ratio, positive substrate (rat Oat2): 24.3 ± 3.3 (PGF2α)
- TransportTC/TransportMC ratio, positive substrate (human OAT2): 70.2 ± 6.6 (PGF2α)

B1: human OAT4 (Homo sapiens) (protein)
chain: MAFSKLLEQAGGVGLFQTLQVLTFILPCLMIPSQMLLENFSAAIPGHRCWTHMLDNGSAVSTNMTPKALLTISIPPGPNQGPHQCRRFRQPQWQLLDPNATATSWSEADTEPCVDGWVYDRSVFTSTIVAKWDLVCSSQGLKPLSQSIFMSGILVGSFIWGLLSYRFGRKPMLSWCCLQLAVAGTSTIFAPTFVIYCGLRFVAAFGMAGIFLSSLTLMVEWTTTSRRAVTMTVVGCAFSAGQAALGGLAFALRDWRTLQLAASVPFFAISLISWWLPESARWLIIKGKPDQALQELRKVARINGHKEAKNLTIEVLMSSVKEEVASAKEPRSVLDLFCVPVLRWRSCAMLVVNFSLLISYYGLVFDLQSLGRDIFLLQALFGAVDFLGRATTALLLSFLGRRTIQAGSQAMAGLAILANMLVPQDLQTLRVVFAVLGKGCFGISLTCLTIYKAELFPTPVRMTADGILHTVGRLGAMMGPLILMSRQALPLLPPLLYGVISIASSLVVLFFLPETQGLPLPDTIQDLESQKSTAAQGNRQEAVTVESTSL
- Vmax [1]: 4.75e-05 µmol/min/mg
- Vmax/Km [1]: 0.15 µL/min/mg

— paper PMC9127186, “Molecular Basis Underlying Hepatobiliary and Renal Excretion of Phenolic Acids of Salvia miltiorrhiza Roots (Danshen)” (Frontiers in Pharmacology, 2022)
